Key:
[1] = Click reaction kinetics of chelating azides in phosphate buffer (fluorescent test); conditions: 0.1M phosphate buffer pH 7.4; alkyne and azide 17 μM, copper sulfate 34 μM, sodium ascorbate 850 μM
Procedure: (§1) The reaction kinetics were determined by means of a fluorescent test illustrated by the reaction below, making it possible to establish the kinetic parameters of the reaction and to compare them with the solutions from the literature. This test uses a pro-fluorescent alkyne which forms a highly fluorescent cycloaddition product.
(§2) The operating conditions are the following: the same concentration of 17 μM was used for the alkyne and for the azide. The copper sulfate concentration was 34 μM and the sodium ascorbate (AS) concentration was 850 μM.
(§3) The process was carried out, on the one hand, in a 0.1M phosphate buffer at pH 7.4 and, on the other hand, in a cell lysate obtained by means of three cycles of sonication of Jurkat ([…]) for 30 seconds. The alkyne, the azide and the copper sulfate are mixed at ambient temperature for 30 minutes and then the kinetics are initiated by adding sodium ascorbate.

[2] = Click reaction kinetics of chelating azides in cell lysate (fluorescent test); conditions: cell lysate of Jurkat (human T-cell leukemia), alkyne and azide 17 μM, copper sulfate 34 μM, sodium ascorbate 850 μM
Procedure: as §1, §2, §3

[3] = Ligation kinetics in a complex medium (cell lysate), fluorescent test; conditions: azide and alkyne 17.5 μM, Cu 350 μM, sodium ascorbate 8.75 mM (500 eq)
Procedure: An experiment was also carried out in a cell culture medium. The process was carried out as follows:
100 μl of a solution containing 35 μM of alkyne C1 and 35 μM of azide RN3 dissolved in cell lysate are added to 50 μl of cell lysate containing 1.4 mM of CuSO4. The reaction is then initiated by adding 50 μl of an aqueous solution containing 1.75 mM of ascorbic acid (AS). The cycloaddition reaction is monitored by measuring, every 5 seconds, for 20 minutes, the fluorescence intensity at 400 nm following excitation at 320 nm. The reaction yield is calculated by means of a calibration range previously established with the cyclo-adduct C2.
Conditions: Azide and alkyne 17.5 μM, Cu 350 μM, sodium ascorbate 8.75 mM (500 eq).

[4] = Azide/alkyne click reaction kinetics in a buffered medium (fluorescent test); conditions: for Reaction rate / Ligation yield: aqueous medium at neutral pH, azide, alkyne and Cu 17.5 μM, sodium ascorbate 475 μM (25 eq); for Ligation yield: monitored for 20 minutes
Procedure: The azide/alkyne coupling reaction kinetics obtained using azides of the present invention and also the kinetics obtained using copper-chelating compounds and azides of the prior art were studied.
The kinetics were done under concentration conditions conventional in bioconjugation, i.e. in an aqueous medium at neutral pH and under conditions of low concentration of reagents: azide, alkyne and Cu 17.5 μM, sodium ascorbate 475 μM (25 eq).
The reactivity of the azides of the invention with respect to the azide/alkyne “click” reaction was evaluated by means of a fluorescent test (scheme 1) which makes it possible to establish the kinetic parameters of the reaction and to compare them with the solutions from the literature. This test uses a pro-fluorescent alkyne C1 which forms a highly fluorescent cycloaddition product C2. The synthesis and the fluorescence properties are described in the literature.
100 μl of a solution containing 35 μM of alkyne C1 and 35 μm of azide RN3 dissolved in a DMF/H2O mixture (50/50) are added to 50 μl of an aqueous solution containing 70 μM of CuSO4. The reaction is then initiated by adding 50 μl of an aqueous solution containing 1.75 mM of ascorbic acid (AS). The cycloaddition reaction is monitored by measuring, every 5 seconds, for 20 minutes, the fluorescence intensity at 400 nm following excitation at 320 nm. The reaction yield is calculated by means of a calibration range previously established with the cyclo-adduct C2.

[5] = tested on: HuH-7 cells; test: Ligation in living cells, fluorescence microscopy; format: cell-based; conditions: HuH-7 cells pre-incubated with 62.5 nM paclitaxel-alkyne 2; 100 μM copper complex of compound 1 for 4 h
Procedure: HuH-7 cells fixed on 96-well plates, incubated beforehand in the presence of paclitaxel 2 comprising an alkyne function, were treated with the copper complex above.
The cells were treated with 100 μl of a 62.5 nM solution of compound 2 dissolved in 0.1M phosphate buffer, and then incubated at 37° C. for 30 min. The cells are then washed twice by adding 100 μl of 0.1M phosphate buffer and then treated for 4 h with 100 μl of a 100 μM solution of the copper complex of compound 1. The cells are again washed twice by adding 100 μl of 0.1M phosphate buffer and then fixed by treating with 150 μl of a 4% formaldehyde solution. After fixing for 15 min, the cells are washed twice by adding 100 μl of 0.1M phosphate buffer and then incubated with a 62.5 nM solution of Tubulin Tracker® Green 3 for 30 min at 37° C. The cells are again washed with 0.1M phosphate buffer and then observed by fluorescence microscopy.
After cell washing steps, the fluorescence of the rhodamine part of the copper complex of compound 1 was measured. […] Compound 3, a covalent conjugate between the paclitaxel and the Oregon Green® fluorophore, was used as a control.
FIG. 8A illustrates the localization of the cell nucleus by the 4′,6′-diamidino-2-phenylindole reagent.

Molecule | click reaction activity (FIG. 6) [1] | click reaction activity (FIG. 7) [2] | position of the ligation yield versus time curve in FIG. 5 [3] | Reaction rate [4] | Ligation yield [4] | further results
CC(C)(C)n1cc(CN(CCCN=[N+]=[N-])Cc2cn(CCCCC(=O)O)nn2)nn1 [Example 2, 5-(4-(((3-azidopropyl)((1-(tert-butyl)-1H-1,2,3-triazol-4-yl)methyl)amino)methyl)-1H-1,2,3-triazol-1-yl)pentanoic acid] | make it possible to carry out the click reaction with efficiency | particularly effective | upper curve |  |  | click reaction activity (FIG. 7) ([2]; listed as A20): make it possible to carry out the click reaction with efficiency
[N-]=[N+]=NCCCN(Cc1cn(CCCCC(=O)O)nn1)Cc1cn(CCCCC(=O)O)nn1 [Example 1, 5,5′-(4,4′-(((3-azidopropyl)azanediyl)bis(methylene))bis(1H-1,2,3-triazole-4,1-diyl))dipentanoic acid] | make it possible to carry out the click reaction with efficiency | make it possible to carry out the click reaction with efficiency |  | 12.0 µM/min | 74% | ligation yields relative to the best comparable compounds of the prior art ([4]; buffered medium): twice as high
COc1ccnc(CN=[N+]=[N-])c1 [Comparative example 3, reference compound] |  |  | lower curves | 3.5 µM/min | 35% | 
[N-]=[N+]=NCc1ccccn1 [Comparative example 2, reference compound] |  |  |  | 4.2 µM/min | 28% | 
[N-]=[N+]=NCCCN(Cc1ccccn1)Cc1ccccn1 [Example A14, reference compound] | inactive | inactive |  |  |  | 
Cn1c(CN(CCCN=[N+]=[N-])Cc2nc3ccccc3n2C)nc2ccccc21 [Preparation 1, 3-Azido-N,N-bis((1-methyl-1H-benzo[d]imidazol-2-yl)methyl)propan-1-amine] |  |  |  | 101.7 µM/min | 65% | click reaction faster than the comparable compounds of the prior art ([4]; buffered medium): approximately 20 times
[N-]=[N+]=NCCCN(Cc1cn(Cc2ccccc2)nn1)Cc1cn(Cc2ccccc2)nn1 [Preparation 2, 3-azido-N, N-bis((1-benzyl-1H-1,2,3-triazol-4-yl)methyl)propan-1-amine] |  |  |  | 10.8 µM/min | 45% | 
CN(C)c1ccc2c(-c3cc(C(=O)NCCCN4C(=O)CC(SCC(=O)NCCCNC(=O)CCCn5cc(CN(CCCN=[N+]=[N-])Cc6cn(C(C)(C)C)nn6)nn5)C4=O)ccc3C(=O)[O-])c3ccc(=[N+](C)C)cc-3oc2c1 (centres unmarked) [azide 1, 4-((3-(3((2-((3-(4-(4-(((3-azidopropyl)((1-(tert-butyl)-1H-1,2,3-triazol-4-yl)methyl)amino)methyl)-1H-1,2,3-triazol-1-yl)butanamido)propyl)amino)-2-oxoethyl)thio)-2,5-dioxopyrrolidin-1-yl)propyl)carbamoyl)-2-(6-(dimethylamino)-3-(dimethyliminio)-3H-xanthen-9-yl)benzoate] |  |  |  |  |  | cell penetration and intracellular click coupling to paclitaxel-alkyne 2 bound to tubulin (FIG. 8) [5]: capable of penetrating inside the cells and of coupling
Diethyl 5,5′-(4,4′-(((3-azidopropyl)azanediyl)bis(methylene))bis(1H-1,2,3-triazole-4,1-diyl))dipentanoate [Preparation 3] |  |  | middle curve | 16.5 µM/min | 67% | ligation yields relative to the best comparable compounds of the prior art ([4]; buffered medium): twice as high
